Literature values in patent US20200138710A1, “COMPOSITIONS WITH PERMEATION ENHANCERS FOR DRUG DELIVERY” (Children's Medical Center Corporation, priority 2016, published 2020).

| Log P | SMILES |
| --- | --- |
| −0.16 | CO/N=C(\C(=O)N[C@@H]1C(=O)N2C(C(=O)O)=C(COC(N)=O)CS[C@H]12)c1ccco1 [Cefuroxime] |
| 4.02 | CC[C@H]1OC(=O)[C@H](C)[C@@H](O[C@H]2C[C@@](C)(OC)[C@@H](O)[C@H](C)O2)[C@H](C)[C@@H](O[C@@H]2O[C@H](C)C[C@H](N(C)C)[C@H]2O)[C@](C)(O)C[C@@H](C)CN(C)[C@H](C)[C@@H](O)[C@]1(C)O [Azithromycin] |
| −1.47 | CO/N=C(\C(=O)N[C@@H]1C(=O)N2C(C(=O)O)=C(CSc3nc(=O)c(=O)[nH]n3C)CS[C@H]12)c1csc(N)n1 [Ceftriaxone] |
